Assay results: the supplement of paper PMC10307832

Legend:
Assay in all cases: relative viability (nuclei count vs DMSO), 5 days (fraction); higher = more cells survive
[1] = compound: COc1cc2nccc(Oc3ccc(NC(=O)C4(C(=O)Nc5ccc(F)cc5)CC4)cc3)c2cc1OC [Cabozantinib] + CS(=O)(=O)N1CCN(Cc2cc3nc(-c4cccc5[nH]ncc45)nc(N4CCOCC4)c3s2)CC1 [Pictilisib] (partner 1 µM)
Method in brief: (§1)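 Relative viability divides the nuclei count in treated wells by that in vehicle wells. Lung cancer cell lines were seeded in 1536-well plates, dosed by pin tool the next day, and fixed and stained after 5 days in one step with final 0.05% Triton X-100, 1% formaldehyde and 1 ug/ml Hoechst. Dosing was a single drug or a fixed anchor-drug dose plus five library-drug doses (not always all listed) in √10 steps, and values are medians of duplicate plates imaged at 4×.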

Zosuquidar + Palbociclib = compound: O[C@@H](COc1cccc2ncccc12)CN1CCN([C@@H]2c3ccccc3[C@@H]3[C@H](c4ccccc42)C3(F)F)CC1 [Zosuquidar] + CC(=O)c1c(C)c2cnc(Nc3ccc(N4CCNCC4)cn3)nc2n(C2CCCC2)c1=O [Palbociclib] (partner 0.5 µM)
Method in brief: as §1

Zosuquidar + Pemetrexed = compound: O[C@@H](COc1cccc2ncccc12)CN1CCN([C@@H]2c3ccccc3[C@@H]3[C@H](c4ccccc42)C3(F)F)CC1 [Zosuquidar] + Nc1nc2[nH]cc(CCc3ccc(C(=O)N[C@@H](CCC(=O)O)C(=O)O)cc3)c2c(=O)[nH]1 [Pemetrexed] (partner 0.2 µM)
Method in brief: as §1

[2] = compound: COc1cc2nccc(Oc3ccc(NC(=O)C4(C(=O)Nc5ccc(F)cc5)CC4)cc3)c2cc1OC [Cabozantinib] + C[C@]1(O)C[C@@H](c2nc(-c3ccc4ccc(-c5ccccc5)nc4c3)c3c(N)nccn32)C1 [Linsitinib] (partner 1 µM)
Method in brief: as §1

Cell Line	relative viability ([1]; first compound 0.02 µM)	relative viability ([1]; first compound 0.06325 µM)	relative viability ([1]; first compound 0.2 µM)	relative viability ([1]; first compound 0.6325 µM)	relative viability ([1]; first compound 2 µM)	relative viability (Zosuquidar + Palbociclib; first compound 0.01 µM)	relative viability (Zosuquidar + Palbociclib; first compound 0.03162 µM)	relative viability (Zosuquidar + Palbociclib; first compound 0.1 µM)	relative viability (Zosuquidar + Palbociclib; first compound 0.3162 µM)	relative viability (Zosuquidar + Palbociclib; first compound 1 µM)	relative viability (Zosuquidar + Pemetrexed; first compound 0.01 µM)	relative viability (Zosuquidar + Pemetrexed; first compound 0.03162 µM)	relative viability (Zosuquidar + Pemetrexed; first compound 0.1 µM)	relative viability (Zosuquidar + Pemetrexed; first compound 0.3162 µM)	relative viability (Zosuquidar + Pemetrexed; first compound 1 µM)	relative viability ([2]; first compound 0.02 µM)	relative viability ([2]; first compound 0.06325 µM)	relative viability ([2]; first compound 0.2 µM)	relative viability ([2]; first compound 0.6325 µM)	relative viability ([2]; first compound 2 µM)
NCI-H358	0.318	0.35	0.386	0.387	0.373	0.119	0.148	0.132	0.16	0.136	0.189	0.173	0.173	0.167	0.154	0.833	0.868	0.851	0.735	0.736
NCI-H2085	0.468	0.456	0.443	0.465	0.344	0.5	0.469	–	0.508	0.484	0.953	0.697	–	0.956	0.904	0.93	0.868	0.918	0.847	0.875
NCI-H1792	0.334	0.318	0.301	0.293	0.268	0.665	0.583	–	0.673	0.703	0.746	0.705	0.474	1.04	0.933	0.669	0.588	0.511	0.483	0.496
NCI-H2405	–	0.496	0.602	0.422	0.439	0.565	0.528	0.555	0.539	0.489	1.08	0.914	0.956	1.2	0.23	–	1.14	0.905	0.908	0.852
201T	0.688	0.715	0.656	0.709	0.71	0.349	0.343	0.365	0.354	0.337	0.315	0.334	0.35	0.322	0.334	1.08	1.04	0.993	1.01	0.973
NCI-H1755	0.445	0.534	0.383	0.358	0.309	0.47	0.461	0.464	0.441	0.454	0.448	0.428	0.426	0.426	0.452	0.982	0.967	0.965	0.841	0.834
NCI-H650	0.765	1.02	1.02	0.774	0.868	0.305	0.327	0.331	0.364	0.378	0.764	0.757	0.834	1.18	0.921	0.846	1.02	1.05	0.971	0.774
NCI-H1651	0.548	0.62	0.513	0.547	0.468	0.509	0.537	0.489	0.508	0.511	0.55	0.653	0.425	0.533	0.644	1.06	0.969	1.06	0.958	0.733
